How the values were obtained:
22Rv1 Cell = test: 22RV1 cell growth inhibition, CellTiter-Glo, 72 h; format: cell-based; settings: 22RV1 cells, 72 h culture
Description: (§1) 22RV1 or vCap cells were cultured in RPMI-1640 medium (10% fetal bovine serum and 100 units (per mL) of penicillin/streptomycin dual antibody were added to RPMI-1640) in a 37° C., 5% CO2 cell incubator. Cells at the logarithmic growth phase were inoculated onto a 96-well cell culture plate at 5×10^3 cells/100 μL/well and cultured overnight. Solutions of different concentrations of an active compound in DMSO were added, with the final concentration being 0.5% DMSO. The positive control was 1% TweeN2O, and the negative control was 0.5% DMSO. After 72 h of culture, an equal volume of CellTiter-Glo was added to each well, and the mixtures were mixed homogeneously by shaking for 2 min. The plate was let stand at room temperature for 10 min, and fluorescence signal values were read using a microplate reader. Data were analyzed using Prism 7.0 and graphs were generated. The values are shown as mean f SEM (N=2). […] The X-axis represents compound concentration (μM), and the Y-axis represents % inhibition.

vCap Cell = test: vCap cell growth inhibition, CellTiter-Glo, 72 h; format: cell-based; settings: vCap cells, 72 h culture
Description: as §1

CNC(=O)N1CCc2cc(C3CCC(OC)CC3)cc(N3CCCc4cc(-c5cnn(C)c5)c(C(F)F)cc43)c2C1 (stereo not shown) [Compound M001198]
IC50 (22Rv1 Cell; Homo sapiens, 22Rv1, 72 h): > 1000 nM
IC50 (vCap Cell; Homo sapiens, VCaP, 72 h): > 1000 nM

CNC(=O)N1CCc2cc(-c3ccn(C)c(=O)c3)cc(N3CCCc4cc(-c5cnn(C)c5)c(C(F)F)cc43)c2C1 [Compound M001125]
IC50 (22Rv1 Cell; Homo sapiens, 22Rv1, 72 h): > 1000 nM
IC50 (vCap Cell; Homo sapiens, VCaP, 72 h): < 1000 nM

CNC(=O)N1CCc2cc(C3CCN(S(=O)(=O)C4CC4)CC3)cc(N3CCCc4cc(-c5cnn(C)c5)c(C(F)F)cc43)c2C1 [Compound M001307]
IC50 (22Rv1 Cell; Homo sapiens, 22Rv1, 72 h): < 1000 nM
IC50 (vCap Cell; Homo sapiens, VCaP, 72 h): < 1000 nM

CSC1CCC(c2cc3c(c(N4CCCc5cc(-c6cnn(C)c6)c(C(F)F)cc54)c2)CN(C(C)=O)C3)CC1 (stereo not shown) [Compound M001324]
IC50 (22Rv1 Cell): > 1000 nM
IC50 (vCap Cell): < 1000 nM

COC(=O)N1CCc2cc(Cl)cc(N3CCCc4cc(-c5cnn(C)c5)c(C(F)F)cc43)c2C1 [Compound M001201]
IC50 (22Rv1 Cell; Homo sapiens, 22Rv1, 72 h): > 1000 nM
IC50 (vCap Cell; Homo sapiens, VCaP, 72 h): > 1000 nM

CNC(=O)N1CCc2cc([C@H]3CCC(=O)N(C)C3)cc(N3CCCc4cc(-c5cnn(C)c5)c(C(F)F)cc43)c2C1 [Compound M001234]
IC50 (22Rv1 Cell; Homo sapiens, 22Rv1, 72 h): < 1000 nM
IC50 (vCap Cell; Homo sapiens, VCaP, 72 h): < 1000 nM

CNC(=O)N1Cc2cc(C3CCN(C(=O)c4ccccc4)CC3)cc(N3CCCc4cc(-c5cnn(C)c5)c(C(F)F)cc43)c2C1 [Compound M001163]
IC50 (22Rv1 Cell; Homo sapiens, 22Rv1, 72 h): > 1000 nM
IC50 (vCap Cell; Homo sapiens, VCaP, 72 h): > 1000 nM

COC(=O)N1CCCc2cccc(N3CCCc4cc(-c5cnn(C)c5)c(C(F)F)cc43)c2C1 [Compound M001210]
IC50 (22Rv1 Cell; Homo sapiens, 22Rv1, 72 h): > 1000 nM
IC50 (vCap Cell; Homo sapiens, VCaP, 72 h): > 1000 nM

CNC(=O)N1CCc2cc(C3CCN(CCOC)C(=O)C3)cc(N3CCCc4cc(-c5cnn(C)c5)c(C(F)F)cc43)c2C1 (stereo not shown) [Compound M001188]
IC50 (22Rv1 Cell; Homo sapiens, 22Rv1, 72 h): < 1000 nM
IC50 (vCap Cell; Homo sapiens, VCaP, 72 h): < 1000 nM

CNC(=O)N1CCc2cc([C@H]3CC[C@H](O)CC3)cc(N3CCCc4cc(-c5cnn(C)c5)c(C(F)F)cc43)c2C1 [Compound M001181]
IC50 (22Rv1 Cell; Homo sapiens, 22Rv1, 72 h): > 1000 nM
IC50 (vCap Cell; Homo sapiens, VCaP, 72 h): > 1000 nM

CNC(=O)N1CCc2cc(C3CCN(C(C)=O)C3)cc(N3CCCc4cc(-c5cnn(C)c5)c(C(F)F)cc43)c2C1 (stereo not shown) [Compound M001054]
IC50 (22Rv1 Cell; Homo sapiens, 22Rv1, 72 h): > 1000 nM
IC50 (vCap Cell; Homo sapiens, VCaP, 72 h): > 1000 nM

CNC(=O)N1CCc2cc(N3CCSCC3)cc(N3CCCc4cc(-c5cnn(C)c5)c(C(F)F)cc43)c2C1 [Compound M001019]
IC50 (22Rv1 Cell; Homo sapiens, 22Rv1, 72 h): > 1000 nM
IC50 (vCap Cell; Homo sapiens, VCaP, 72 h): > 1000 nM

CCNC(=O)N1CCc2cc(Cl)cc(N3CCCc4cc(-c5cnn(C)c5)c(C(F)F)cc43)c2C1 [Compound M001229]
IC50 (22Rv1 Cell; Homo sapiens, 22Rv1, 72 h): > 1000 nM
IC50 (vCap Cell; Homo sapiens, VCaP, 72 h): > 1000 nM

CNC(=O)N1CCc2cc(CN3CCC(C(=O)O)CC3)cc(N3CCCc4cc(-c5cnn(C)c5)c(C(F)F)cc43)c2C1 [Compound M001016]
IC50 (22Rv1 Cell; Homo sapiens, 22Rv1, 72 h): > 1000 nM
IC50 (vCap Cell; Homo sapiens, VCaP, 72 h): > 1000 nM

CNC(=O)N1CCc2cc(C3CCNC3)cc(N3CCCc4cc(-c5cnn(C)c5)c(C(F)F)cc43)c2C1 (stereo not shown) [Compound M001050]
IC50 (22Rv1 Cell; Homo sapiens, 22Rv1, 72 h): > 1000 nM
IC50 (vCap Cell; Homo sapiens, VCaP, 72 h): > 1000 nM

CC(=O)N1Cc2cc(C3CCN(C(=O)c4cn(C)cn4)CC3)cc(N3CCCc4cc(-c5cnn(C)c5)c(C(F)F)cc43)c2C1 [Compound M001176]
IC50 (22Rv1 Cell; Homo sapiens, 22Rv1, 72 h): < 1000 nM
IC50 (vCap Cell; Homo sapiens, VCaP, 72 h): < 1000 nM

CNC(=O)N1CCc2cc([C@@H]3CCC(=O)N(C)C3)cc(N3CCCc4cc(-c5cnn(C)c5)c(C(F)F)cc43)c2C1 [Compound M001235]
IC50 (22Rv1 Cell; Homo sapiens, 22Rv1, 72 h): < 1000 nM
IC50 (vCap Cell; Homo sapiens, VCaP, 72 h): < 1000 nM

Cn1cc(-c2cc3c(cc2C(F)F)N(c2cccc4c2CN(C(N)=O)CCC4)CCC3)cn1 [Compound M001213]
IC50 (22Rv1 Cell; Homo sapiens, 22Rv1, 72 h): > 1000 nM
IC50 (vCap Cell; Homo sapiens, VCaP, 72 h): > 1000 nM

CC(=O)N1Cc2cc(C3CCN(C(=O)C(C)O)CC3)cc(N3CCCc4cc(-c5cnn(C)c5)c(C(F)F)cc43)c2C1 (stereo not shown) [Compound M001073]
IC50 (22Rv1 Cell; Homo sapiens, 22Rv1, 72 h): > 1000 nM
IC50 (vCap Cell; Homo sapiens, VCaP, 72 h): > 1000 nM

CCN1CC(c2cc3c(c(N4CCCc5cc(-c6cnn(C)c6)c(C(F)F)cc54)c2)CN(C(=O)NC)CC3)CCC1=O (stereo not shown) [Compound M001221]
IC50 (22Rv1 Cell; Homo sapiens, 22Rv1, 72 h): < 1000 nM
IC50 (vCap Cell; Homo sapiens, VCaP, 72 h): < 1000 nM

CC(=O)N1CCC(c2cc3c(c(N4CCCc5cc(-c6cnn(C)c6)c(C(F)F)cc54)c2)CN(C(C)=O)C3)CC1 [Compound M001071]
IC50 (22Rv1 Cell; Homo sapiens, 22Rv1, 72 h): > 1000 nM
IC50 (vCap Cell; Homo sapiens, VCaP, 72 h): > 1000 nM

CNC(=O)N1Cc2cc(C3CCC(OC)CC3)cc(N3CCCc4cc(-c5cnn(C)c5)c(C(F)F)cc43)c2C1 (stereo not shown) [Compound M001200]
IC50 (22Rv1 Cell; Homo sapiens, 22Rv1, 72 h): > 1000 nM
IC50 (vCap Cell; Homo sapiens, VCaP, 72 h): > 1000 nM

CNC(=O)N1Cc2cc(C3CCN(C)C(=O)C3)cc(N3CCCc4cc(-c5cnn(C)c5)c(C(F)F)cc43)c2C1 (stereo not shown) [Compound M001119]
IC50 (22Rv1 Cell; Homo sapiens, 22Rv1, 72 h): > 1000 nM
IC50 (vCap Cell; Homo sapiens, VCaP, 72 h): > 1000 nM

Source: patent US20240109868A1, “EP300/CBP MODULATOR, PREPARATION METHOD THEREFOR AND USE THEREOF” (Miracure Biotechnology Limited, priority 2022, published 2024)
